Test results reported in patent US20200392462A1, “METHODS OF FORMING CARDIOMYOCYES” (THE REGENTS OF THE UNIVERSITY OF COLORADO, A BODY CORPORATE, priority 2018, published 2020).

Assay: Inhibitor release study by HPLC
Format: physicochemical
Description: Inhibitor loading efficiency and release studies: All supernatants after initial loading of inhibitors were stored at −20° C. Supernatants were analyzed by reverse phase high performance liquid chromatography (HPLC). Inhibitor release studies were done sampling particle suspension inhibitor release up to 6 days. Briefly, drug release solution was prepared using 1 mL of 1×PBS, and 1 mL of 1% bovine serum albumin. The lyophilized pSi were suspended at a concentration of 3 mg/mL of drug release solution and incubated at 37° C. with constant stirring. At 1, 3, 5, 12 and every 24 hours thereafter, suspensions were centrifuged and 1 ml drug release solution was taken and replaced with fresh drug release solution. Agilent Zorbax Eclipse Plus C18 (100×4.6 mm, 3.5 um pore particle size) column was used for analysis. Samples flowed through the column at 1.0 ml/min and with a mobile phase consisting of acetonitrile in 0.1% trifluoroacedic acid: H2O in 0.1% trifluoroacedic acid (V/V). Samples were analyzed at 281 nm.

Compound | cumulative release (from pSi, at 144 hours) [%] | cumulative release (from pSi, within the first 24 hours, 37° C., PBS/BSA) [%] | cumulative release (from pSi coated with 5 wt % PLGA 50:50, after 144 hours) [%] | cumulative release (from pSi coated with 5 wt % PLGA 50:50, end of 72 hours) [%] | cumulative release (from pSi coated with 5 wt % PLGA 50:50, within the first 48 hours) [%]
Cc1c[nH]c(-c2cnc(NCCNc3ccc(C#N)cn3)nc2-c2ccc(Cl)cc2Cl)n1 [CHIR99021] | ~100 | 81.1±5.3 | – | – | –
Cc1ccc2nc(NC(=O)CSc3nc4c(c(=O)n3-c3ccccc3)SCC4)sc2c1 [IWP2] | – | – | 56.4±7.2 | 40.2±9.1 | 27.8±7.2
